Peptide text beside a SMILES is read from it.
System: GFP-tagged THP-1 cells on endothelial monolayer (HUVECs)
Assay: Monocyte diapedesis: GFP-tagged THP-1 cells on HUVEC monolayer
Assay type: cell-based, human
Conditions: 10 nM peptide, 30 minutes, 37°C, 10 fields/slide
Excerpt: Diapedesis of leukocytes plays a key role in the pathogenesis of inflammatory diseases and migration of monocytes from the blood into the sub-endothelial space is one of the earliest events. We investigated the effects of [SRSRY] on the number and morphology of THP-1 seeded to an endothelial monolayer. […] (Fig 5A). To examine the changes in morphology in more detail and quantify monocytes interacting with endothelial monolayer, we performed a subset of experiments using GFP-tagged THP-1, labeling co-cultures for F-actin and recording images by a confocal microscope. […] To further ascertain if [SRSRY] reduces trans-endothelial migration of monocytes, the ability of THP-1 cells to cross an endothelial monolayer was analyzed using the xCELLigence RTCA technology as previously described. […] At this time, reduction of impedance values, due to invading cells that interrupt monolayers was monitored in real-time for 10 hours. […]
Fig 5 [SRSRY] prevents trans-endothelial migration of THP-1 cells. […] Representative images of co-cultures analyzed by phase contrast microscopy at 100x with Scale bar: 50 μm (A) or stained with rhodamine- phalloidin and recorded by a confocal microscope (z-series with 0.25 μm intervals) at 630x with Scale bar: 10 μm (B). […] Fluorescent THP-1 cells which were adherent on the endothelial monolayer were counted on 10 fields/slide at 200x magnification. […]

## N=C(N)NCCC[C@@H]1NC(=O)[C@H](CO)NC(=O)[C@H](Cc2ccc(O)cc2)NC(=O)[C@H](CCCNC(=N)N)NC(=O)[C@H](CO)NC1=O [[SRSRY], [Ser-Arg-Ser-Arg-Tyr]] (cyclo(RSRYS))
  reduction of GFP-THP-1 cell number interacting with endothelial monolayer: 40%

Source: paper PMC4418665, “Cyclization of the Urokinase Receptor-Derived Ser-Arg-Ser-Arg-Tyr Peptide Generates a Potent Inhibitor of Trans-Endothelial Migration of Monocytes” (PLoS ONE, 2015)
